Laboratory results published in publication PMC12260505, “First-in-Human Phase I/IIa Study of the First-in-Class CDK2/4/6 Inhibitor PF-06873600 Alone or with Endocrine Therapy in Patients with Breast Cancer” (Clinical Cancer Research, 2025).

Legend:
Ki67 = experiment: IHC of Ki67 in paired tumor biopsies; assay type: in vivo, human
Description: The pharmacodynamic effects of PF-06873600 were assessed by IHC staining of pRb and Ki67 in tumor biopsy samples collected at screening and day 1 of cycle 2 (4 hours after dose). Immunostaining was performed on […] formalin-fixed, paraffin-embedded tissue sections using rabbit monoclonal anti-Rb (Ser807/811) antibody (clone D20B12, Cell Signaling Technology) and rabbit monoclonal anti-Ki67 antibody (Ventana Medical Systems), respectively. pRb and Ki67 expressions were assessed semiquantitatively by a board-certified pathologist. Scoring was performed using the percentage of cells positive for Ki67 or a histo-score (H-score) methodology for pRb based on staining intensity and the percentage of positive cells. Intensity was scored as 0, none; 1, weak; 2, moderate; or 3, strong, and H-scores were calculated as follows: H-score = [fraction of cells with intensity grade 1 (%)] + [fraction of cells with intensity grade 2 (%) × 2] + [fraction of cells with intensity grade 3 (%) × 3].

ctDNA = ctDNA molecular response (Guardant360, meanVAF change); assay type: in vivo, human; settings: plus fulvestrant; for Median ctDNA molecular response: combined parts 2A and 2C; for Median change in ctDNA meanVAF: cycle 1 day 15 from cycle 1 day 1
Description: Plasma samples were collected at cycle 1 day 1, cycle 1 day 15, and the end of treatment (EOT). Genomic alterations in ctDNA were detected using the next-generation sequencing–based 74-gene Guardant360 platform (Guardant Health). ctDNA molecular response between the two samples was determined as described by Mack and colleagues ([9]). Briefly, after subtracting germline variants and potential clonal hematopoiesis of indeterminate potential, the mean variant allele frequency (meanVAF) of somatic variants (including single-nucleotide variants, insertions and deletions, and fusions) with a mutant molecular count above a proprietary threshold was calculated for each sample by averaging the VAFs of all variants detected among the two samples. The relative change of meanVAF of the posttreatment sample from the baseline sample was then calculated as the ctDNA molecular response. Samples lacking somatic variants with sufficient mutant molecular counts or the absence of any somatic alterations at both time points were considered ctDNA low and not evaluable for molecular response.

[1] = tested on: HR+/HER2− metastatic breast cancer; experiment: Antitumor activity by RECIST version 1.1; assay type: in vivo, human; settings: for Objective response (CR + PR; pts with HR+/HER2− breast cancer with measurable disease at baseline and prior CDK4/6i): 40 such pts
Description: Antitumor activity was assessed through radiological tumor assessments conducted at baseline, during treatment, whenever disease progression was suspected (e.g., symptomatic deterioration), and at the time of withdrawal from treatment (if not done in the previous 8 weeks). Responses were assessed using RECIST version 1.1.
DLT was the primary endpoint of the study, summarized by dose level using the per-protocol analysis set for patients in the dose escalation portion of the study. Efficacy analysis was summarized by dose cohorts for part 2 of the study. For part 1, no formal efficacy analysis was presented. For part 2, tumor response was presented in the form of patient data listings that included, but were not limited to, tumor type, starting dose, tumor response at each visit, and best overall response. In addition, progression date, death date, date of first response, last tumor assessment date, and date of last contact were listed. ORR, PFS, overall survival, TTP, and DoR were summarized and presented as data permitted. For response-based metrics (best overall response, ORR, and DoR), analyses were presented on the basis of confirmed responses. Analyses of PFS and TTP were defined as the time from the date of the first dose. Summaries of the number and percentage of patients with PFS and TTP and data listings by tumor type and dose were generated based on data availability. The 95% confidence intervals (CI) for medians and quartiles were generated based on the Brookmeyer–Crowley method, whereas CIs for the estimated probability of an event at a particular time point were generated using the Greenwood formula. DoR was summarized with the number of responders, the number and percentage of events/censorship, mean, standard deviation, and minimum, maximum, and median duration in units of months. ORR was summarized by the number of patients meeting respective criteria as a percentage. The 95% CIs were generated for PFS, TTP, and ORR based on available data.

CDK1 = target: CDK1; design: method as in PMID 34110834; settings: cited from earlier work
CDK9 = target: CDK9; design: method as in PMID 34110834; settings: cited from earlier work
[2] = Part 2A 25 mg twice daily IR + Fulvestrant, n = 45, response-evaluable set
[3] = Part 2C 25 mg twice daily IR + Fulvestrant, n = 22, response-evaluable set
[4] = Part 2 total (2A + 2C, + Fulvestrant), N = 67

C[C@@]1(O)CCC[C@H]1n1c(=O)c(C(F)F)cc2cnc(NC3CCN(S(C)(=O)=O)CC3)nc21 [PF-06873600]
Median percentage change in Ki67-positive cells from baseline (Ki67; IR 25 mg twice daily monotherapy, cycle 2 day 1, HR+/HER2− mBC tumor biopsies): –11.7% | Median percentage change in Ki67-positive cells from baseline (Ki67; IR 25 mg twice daily/fulvestrant combination, cycle 2 day 1): –35.9% | Median ctDNA molecular response (ctDNA; EOT): 6% | Median ctDNA molecular response (ctDNA; cycle 1 day 15): −60% | Median change in ctDNA meanVAF (ctDNA; part 2A (28 evaluable)): −61% | Median change in ctDNA meanVAF (ctDNA; part 2C (14 evaluable)): −54% | Objective response (CR + PR; pts with HR+/HER2− breast cancer with measurable disease at baseline and prior CDK4/6i) ([1]; Part 2A 25 mg twice daily IR + Fulvestrant): 3 (7.5) n (%) | Objective response (pts with HR+/HER2− breast cancer with measurable disease at baseline) ([1]; Part 2A 25 mg twice daily IR + Fulvestrant, 44 such pts): 3 (6.8) n (%) | Clinical benefit response (CR, PR, or ≥24 weeks stable disease) [1, 2]: 19 (42.2) n (%) | Confirmed best overall response, CR [1, 2]: 0 n (%) | Confirmed best overall response, NE (not evaluable) [1, 2]: 1 (2.2) n (%) | Confirmed best overall response, Non-CR/non-PD [1, 2]: 0 n (%) | Confirmed best overall response, PR [1, 2]: 3 (6.7) n (%) | Confirmed best overall response, Progressive disease (PD) [1, 2]: 11 (24.4) n (%) | Confirmed best overall response, Stable disease [1, 2]: 30 (66.7) n (%) | Disease control (CR + PR + stable disease + non-CR/non-PD) [1, 2]: 33 (73.3) n (%) | Objective response (CR + PR) [1, 2]: 3 (6.7) n (%) | Objective response (pts with HR+/HER2− breast cancer with measurable disease at baseline) ([1]; Part 2C 25 mg twice daily IR + Fulvestrant, 20 such pts): 5 (25.0) n (%) | Clinical benefit response (CR, PR, or ≥24 weeks stable disease) [1, 3]: 13 (59.1) n (%) | Confirmed best overall response, CR [1, 3]: 0 n (%) | Confirmed best overall response, NE (not evaluable) [1, 3]: 1 (4.5) n (%) | Confirmed best overall response, Non-CR/non-PD [1, 3]: 1 (4.5) n (%) | Confirmed best overall response, PR [1, 3]: 5 (22.7) n (%) | Confirmed best overall response, Progressive disease (PD) [1, 3]: 2 (9.1) n (%) | Confirmed best overall response, Stable disease [1, 3]: 13 (59.1) n (%) | Disease control (CR + PR + stable disease + non-CR/non-PD) [1, 3]: 19 (86.4) n (%) | Objective response (CR + PR) [1, 3]: 5 (22.7) n (%) | Clinical benefit response (CR, PR, or ≥24 weeks stable disease) [1, 4]: 32 (47.8) n (%) | Confirmed best overall response, CR [1, 4]: 0 n (%) | Confirmed best overall response, NE (not evaluable) [1, 4]: 2 (3.0) n (%) | Confirmed best overall response, Non-CR/non-PD [1, 4]: 1 (1.5) n (%) | Confirmed best overall response, PR [1, 4]: 8 (11.9) n (%) | Confirmed best overall response, Progressive disease (PD) [1, 4]: 13 (19.4) n (%) | Confirmed best overall response, Stable disease [1, 4]: 43 (64.2) n (%) | Disease control (CR + PR + stable disease + non-CR/non-PD) [1, 4]: 52 (77.6) n (%) | Objective response (CR + PR) [1, 4]: 8 (11.9) n (%) | Objective response (CR + PR; pts with HR+/HER2− breast cancer with measurable disease at baseline and prior CDK4/6i) ([1]; Part 2 total (+ Fulvestrant)): 3 (7.5) n (%) | Objective response (pts with HR+/HER2− breast cancer with measurable disease at baseline) ([1]; Part 2 total (+ Fulvestrant), 64 such pts): 8 (12.5) n (%) | Partial responses (PR), patients ([1]; part 1 dose escalation, 78 patients (parts 1A, 1B, 1C)): 3.8% | Ki (CDK1): 4.5 nM | Ki (CDK9): 19.6 nM
